According to patent publication US20260097046A1, “PLASMODIUM FALCIPARUM BLOOD STAGE INHIBITORS” (University of Georgia Research Foundation, Inc., priority 2023, published 2026):

Assay: Solubility by HPLC assay
Type: physicochemical
Details: pH 7.4, HPLC assay
Method: Solubility was assessed for selected compounds using an HPLC assay.

| Solubility (μM) at pH 7.4 [μM] | SMILES |
| --- | --- |
| 12.8 | Cc1ccc(-c2cncc(C(=O)N(C)c3ccc(Cl)cc3)c2)cc1 [APZ-2160, N-(4-chlorophenyl)-N-methyl-5-(p-tolyl)nicotinamide] |
| 19.1 | Cc1ccc(N(C)C(=O)c2ncn(-c3ccc(C)cc3)n2)cc1 [APZ-2327, N-methyl-N,1-di-p-tolyl-1H-1,2,4-triazole-3-carboxamide] |
